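1) Cells in 96-well plates. 2) Compound, 48 h, 5 concentrations. 3) Linear interpolation between surrounding doses. 4) Unreached endpoint = highest concentration. TGI: concentration producing complete growth inhibition.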
What was measured:
Assay in all cases: NCI-60 cell line screen, 48 h
786-0 renal = test system: 786-0 renal
COLO 205 colon = test system: COLO 205 colon
HCC-2998 colon = test system: HCC-2998 colon
HCT-116 colon = test system: HCT-116 colon
HOP-62 NSCLC = test system: HOP-62 NSCLC
HT29 colon = test system: HT29 colon
IGROV1 ovarian = test system: IGROV1 ovarian
MALME-3M melanoma = test system: MALME-3M melanoma
MDA-MB-435 = test system: MDA-MB-435
RXF 393 renal = test system: RXF 393 renal
SF-268 CNS = test system: SF-268 CNS
SK-MEL-28 melanoma = test system: SK-MEL-28 melanoma
SK-MEL-5 melanoma = test system: SK-MEL-5 melanoma
SNB-19 CNS = test system: SNB-19 CNS
U251 CNS = test system: U251 CNS
UACC-62 melanoma = test system: UACC-62 melanoma
SNB-75 CNS = test system: SNB-75 CNS

O=c1[nH]n(Cc2ccccc2CCl)c2ccc([N+](=O)[O-])cc12
TGI (786-0 renal): > 100 µM | TGI (COLO 205 colon): 62.5 µM | TGI (HCC-2998 colon): 42.4 µM | TGI (HCT-116 colon): > 100 µM | TGI (HOP-62 NSCLC): > 100 µM | TGI (HT29 colon): > 100 µM | TGI (IGROV1 ovarian): > 100 µM | TGI (MALME-3M melanoma): > 100 µM | TGI (MDA-MB-435): > 100 µM | TGI (RXF 393 renal): > 100 µM | TGI (SF-268 CNS): > 100 µM | TGI (SK-MEL-28 melanoma): > 100 µM | TGI (SK-MEL-5 melanoma): 30.4 µM | TGI (SNB-19 CNS): > 100 µM | TGI (U251 CNS): > 100 µM | TGI (UACC-62 melanoma): > 100 µM

COc1cc(CCCC(O)COc2cccc3c2C2(O)CCCCCC32)cc(OC)c1 (centres undefined)
TGI (786-0 renal): 28.7 µM | TGI (COLO 205 colon): 5.4 µM | TGI (HCC-2998 colon): 17.9 µM | TGI (HCT-116 colon): 31.5 µM | TGI (HOP-62 NSCLC): 28.7 µM | TGI (HT29 colon): 23.9 µM | TGI (IGROV1 ovarian): 28.5 µM | TGI (MALME-3M melanoma): 31.8 µM | TGI (RXF 393 renal): 43.2 µM | TGI (SF-268 CNS): 32.9 µM | TGI (SK-MEL-28 melanoma): 31.1 µM | TGI (SK-MEL-5 melanoma): 20.5 µM | TGI (SNB-19 CNS): 32 µM | TGI (SNB-75 CNS): 30.2 µM | TGI (U251 CNS): 32.9 µM | TGI (UACC-62 melanoma): 30.6 µM

CSC(=N)N1N=C2c3ccccc3CC[C@@H]2[C@@H]1c1ccccc1
TGI (786-0 renal): 25.6 µM | TGI (COLO 205 colon): 26.6 µM | TGI (HCC-2998 colon): 29.4 µM | TGI (HCT-116 colon): 17.7 µM | TGI (HOP-62 NSCLC): 32.8 µM | TGI (HT29 colon): 23.6 µM | TGI (IGROV1 ovarian): 34.8 µM | TGI (MALME-3M melanoma): 25.9 µM | TGI (RXF 393 renal): 27.7 µM | TGI (SF-268 CNS): 49.6 µM | TGI (SK-MEL-28 melanoma): 29.8 µM | TGI (SNB-19 CNS): 34 µM | TGI (U251 CNS): 31 µM | TGI (UACC-62 melanoma): 41.7 µM

CNC(=O)CN(CC(N)=O)C(=O)NC
TGI (786-0 renal): > 100 µM | TGI (COLO 205 colon): > 100 µM | TGI (HCC-2998 colon): > 100 µM | TGI (HOP-62 NSCLC): > 100 µM | TGI (HT29 colon): > 100 µM | TGI (IGROV1 ovarian): > 100 µM | TGI (MALME-3M melanoma): > 100 µM | TGI (RXF 393 renal): > 100 µM | TGI (SF-268 CNS): > 100 µM | TGI (SK-MEL-28 melanoma): > 100 µM | TGI (SK-MEL-5 melanoma): > 100 µM | TGI (SNB-19 CNS): > 100 µM | TGI (SNB-75 CNS): > 100 µM | TGI (U251 CNS): > 100 µM | TGI (UACC-62 melanoma): > 100 µM

CCOC(=O)C1C(c2ccc([N+](=O)[O-])cc2)NC(c2ccc([N+](=O)[O-])cc2)C(C(=O)OC)S1(=O)=O (centres undefined)
TGI (786-0 renal): > 100 µM | TGI (COLO 205 colon): > 100 µM | TGI (HCC-2998 colon): > 100 µM | TGI (HCT-116 colon): > 100 µM | TGI (HOP-62 NSCLC): > 100 µM | TGI (HT29 colon): > 100 µM | TGI (IGROV1 ovarian): > 100 µM | TGI (MALME-3M melanoma): > 100 µM | TGI (RXF 393 renal): > 100 µM | TGI (SF-268 CNS): > 100 µM | TGI (SK-MEL-28 melanoma): > 100 µM | TGI (SNB-19 CNS): > 100 µM | TGI (SNB-75 CNS): > 100 µM | TGI (U251 CNS): > 100 µM | TGI (UACC-62 melanoma): > 100 µM

O=C(/C=C\c1ccccc1-c1ccccc1)c1ccccc1
TGI (786-0 renal): > 100 µM | TGI (COLO 205 colon): > 100 µM | TGI (HCC-2998 colon): > 100 µM | TGI (HCT-116 colon): > 100 µM | TGI (HOP-62 NSCLC): > 100 µM | TGI (HT29 colon): > 100 µM | TGI (IGROV1 ovarian): > 100 µM | TGI (MDA-MB-435): > 100 µM | TGI (RXF 393 renal): > 100 µM | TGI (SF-268 CNS): > 100 µM | TGI (SK-MEL-5 melanoma): > 100 µM | TGI (SNB-75 CNS): > 100 µM | TGI (U251 CNS): > 100 µM | TGI (UACC-62 melanoma): > 100 µM

CCCCCCCCCCCCNC1(C)CNCCCNCCNCCCNC1
TGI (786-0 renal): 3.14 µM | TGI (COLO 205 colon): 3.2 µM | TGI (HCC-2998 colon): 3.22 µM | TGI (HCT-116 colon): 2.59 µM | TGI (HOP-62 NSCLC): 3.83 µM | TGI (HT29 colon): 2.95 µM | TGI (IGROV1 ovarian): 2.35 µM | TGI (MALME-3M melanoma): 3.47 µM | TGI (RXF 393 renal): 2.93 µM | TGI (SK-MEL-28 melanoma): 3.29 µM | TGI (SK-MEL-5 melanoma): 3.06 µM | TGI (SNB-75 CNS): 3.15 µM | TGI (U251 CNS): 2.3 µM | TGI (UACC-62 melanoma): 3.25 µM

Reference: PubChem BioAssay (NCI)
